How the values were obtained:
[1] = tested on: FUNGI; assay: Long term control of fungal growth on a paint film, ASTM D3456 (Table 8); settings: latex paint on Southern yellow pine, 5 years and 5 months
Description: (§1) The effectiveness of halogenated 4'-methoxyacetophenones were evaluated for long term control of fungal and algal growth on a paint film following ASTM Procedure #D3456 (ASTM, 1916 Race St., Philadelphia, Pa. 19103). The test compared the effectiveness of compound 2, 2,2,3'-tribromo-4'-methoxyacetophenone, in latex paint with the commercially available biocides such as Nopcocide-96, and Troysan Polyphase over a period of 5 years and 5 months. The test paint was brush-applied (2 coats) over Southern yellow pine panels. A minimum of 24 hours was allowed between coats. The panels were rated based on the ASTM Procedure #D3274: […]

[2] = tested on: ALGAE; assay: Long term control of algal growth on a paint film, ASTM D3456 (Table 8); settings: latex paint on Southern yellow pine, 5 years and 5 months
Description: as §1

For `COc1ccc(C(=O)C(Br)Br)cc1Br` [Compound 2, 2,2,3'-tribromo-4'-methoxyacetophenone], the “FUNGI rating in paint film preservation” value ([1]; 0.25%) was 5.0, the “FUNGI rating in paint film preservation” value ([1]; 0.5%) was 5.0 and the “ALGAE rating in paint film preservation” value ([2]; 0.25%) was 6.0. For the same compound, the “ALGAE rating in paint film preservation” value ([2]; 0.5%) was 5.0.
